What was measured:
[1] = system: LPS triggered IL-10 secretion in monocyte-derived macrophages (MdM); experiment: MdM assay: LPS-triggered IL-10 (ELISA); type: cell-based, human; details: LPS 200 ng/mL, supernatant after 2 h, maximal fold change vs LPS only
Procedure, shortened: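 Human CD14+ monocytes differentiated 10 days with 100 ng/mL rhM-CSF into macrophages. Compound preincubated 1 h at 37 °C (0.2% DMSO), then LPS 200 ng/mL. IL-10 in supernatant after 2 h measured by sandwich ELISA.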

SIK1 = molecular target: T1, SIK1 (Homo sapiens, UniProt P57059); experiment: ADP-Glo kinase assay, SIK1; type: biochemical; details: ADP-Glo SIK kinase assay
T1 construct: purchased Carna Biosciences 02-131
T1 sequence (P57059 whole entry): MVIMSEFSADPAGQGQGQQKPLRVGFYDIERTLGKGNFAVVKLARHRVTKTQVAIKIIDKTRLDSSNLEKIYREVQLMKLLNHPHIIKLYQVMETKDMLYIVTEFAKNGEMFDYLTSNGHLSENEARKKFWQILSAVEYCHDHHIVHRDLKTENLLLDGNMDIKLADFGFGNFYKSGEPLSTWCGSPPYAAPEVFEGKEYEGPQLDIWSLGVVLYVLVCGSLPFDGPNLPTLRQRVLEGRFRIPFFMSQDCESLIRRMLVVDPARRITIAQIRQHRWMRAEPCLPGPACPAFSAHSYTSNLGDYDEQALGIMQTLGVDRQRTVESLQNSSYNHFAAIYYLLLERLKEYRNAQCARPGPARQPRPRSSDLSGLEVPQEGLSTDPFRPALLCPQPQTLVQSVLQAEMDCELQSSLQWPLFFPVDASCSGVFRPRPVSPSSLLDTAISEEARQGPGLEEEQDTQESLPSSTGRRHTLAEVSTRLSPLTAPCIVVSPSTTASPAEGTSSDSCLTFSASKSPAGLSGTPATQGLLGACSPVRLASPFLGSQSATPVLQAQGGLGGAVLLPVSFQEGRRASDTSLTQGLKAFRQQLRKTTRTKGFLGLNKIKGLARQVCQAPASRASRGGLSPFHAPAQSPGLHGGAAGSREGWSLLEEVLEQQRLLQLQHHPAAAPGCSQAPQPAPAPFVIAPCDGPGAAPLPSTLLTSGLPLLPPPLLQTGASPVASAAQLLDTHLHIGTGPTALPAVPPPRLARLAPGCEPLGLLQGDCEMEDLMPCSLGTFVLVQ
Procedure, shortened: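 Enzyme–substrate mix was started with ATP and incubated 120 min at RT. ADP formed was quantified by ADP-Glo: 40 min ATP depletion, then 30 min detection reagent converting ADP to ATP for luciferase luminescence, which rises with kinase activity. Controls: 1% DMSO and 10 μM staurosporine (final).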

| IC50 (SIK1) | SMILES | IL-10 FCmax median [1] |
| --- | --- | --- |
| 100 to 500 nM | CCN(CC)CCOc1ccn2c(-c3cc4c(c(OC)c3)C(=O)N(CC(F)(F)F)CC4)cnc2c1 [compound 128, 6-[7-[2-(diethylamino)ethoxy]imidazo[1,2-a]pyridin-3-yl]-8-methoxy-2-(2,2,2-trifluoroethyl)-3,4-dihydroisoquinolin-1-one] | ++ (>1.5-4.5) |
| 10 to 100 nM | CN(C)CCOc1ccn2c(-c3cc(OC(F)F)c(C(=O)NC4CC4)c(OC(F)F)c3)cnc2c1 [compound 156, N-cyclopropyl-2,6-bis(difluoromethoxy)-4-[7-[2-(dimethylamino)ethoxy]imidazo[1,2-a]pyridin-3-yl]benzamide] | ++ (>1.5-4.5) |
| 100 to 500 nM | COc1cc(-c2cnc3cc(OCCN(C)C)ccn23)cc(OC(F)F)c1C(=O)NCC(F)(F)F [compound 166, 2-(difluoromethoxy)-4-[7-[2-(dimethylamino)ethoxy]imidazo[1,2-a]pyridin-3-yl]-6-methoxy-N-(2,2,2-trifluoroethyl)benzamide] | ++ (>1.5-4.5) |
| > 500 nM | CNc1cc(-c2cnc3cc(OCCN(C)C)ccn23)cc2c1C(=O)N(CC(F)(F)F)CC2 [compound 167, 6-[7-[2-(dimethylamino)ethoxy]imidazo[1,2-a]pyridin-3-yl]-8-(methylamino)-2-(2,2,2-trifluoroethyl)-3,4-dihydroisoquinolin-1-one] | + (≤1.5) |
| 100 to 500 nM | COc1cc(-c2cnc3cc(OC[C@H]4CN(C)CCO4)ccn23)cc2c1C(=O)N(CC(F)(F)F)CC2 [compound 190, 8-methoxy-6-[7-[[(2R)-4-methylmorpholin-2-yl]methoxy]imidazo[1,2-a]pyridin-3-yl]-2-(2,2,2-trifluoroethyl)-3,4-dihydro isoquinolin-1-one] | ++ (>1.5-4.5) |
| 100 to 500 nM | COc1cc(-c2cnc3cc(OC[C@@H]4CN(C)CCO4)ccn23)cc2c1C(=O)N(CC(F)(F)F)CC2 [compound 191, 8-methoxy-6-[7-[[(2S)-4-methylmorpholin-2-yl]methoxy]imidazo [1,2-a]pyridin-3-yl]-2-(2,2,2-trifluoroethyl)-3,4-dihydroisoquinolin-1-one] | ++ (>1.5-4.5) |
| 10 to 100 nM | COc1cc(-c2cnc3cc(OCCN4C[C@@H]5C[C@H]4CO5)ccn23)cc(OC(F)F)c1C(=O)NC1CC1 [compound 206, N-cyclopropyl-2-(difluoromethoxy)-6-methoxy-4-[7-[2-[(1S,4S)-2-oxa-5-azabicyclo[2.2.1]heptan-5-yl]ethoxy]imidazo[1,2-a]pyridin-3-yl]benzamide] | ++ (>1.5-4.5) |
| 100 to 500 nM | COc1cc(-c2cnc3cc(OCCN4CCOCC4)ccn23)cc2c1C(=O)N(CC(F)F)CC2 [compound 218, 2-(2,2-difluoroethyl)-8-methoxy-6-[7-(2-morpholinoethoxy)imidazo [1,2-a]pyridin-3-yl]-3,4-dihydroisoquinolin-1-one] | ++ (>1.5-4.5) |
| 100 to 500 nM | COc1cc(-c2cnc3cc(OC[C@H]4COCCO4)ccn23)cc2c1C(=O)N(CC(F)F)CC2 [compound 219, 2-(2,2-difluoroethyl)-6-[7-[[(2R)-1,4-dioxan-2-yl]methoxy]imidazo[1,2-a]pyridin-3-yl]-8-methoxy-3,4-dihydroisoquinolin-1-one] | ++ (>1.5-4.5) |
| 10 to 100 nM | COc1cc(-c2cnc3cc(OCC4(C)CN(C)C4)ccn23)cc(OC(F)F)c1C(=O)NC1CC1 [compound 220, N-cyclopropyl-2-(difluoromethoxy)-4-[7-[(1,3-dimethylazetidin-3-yl)methoxy]imidazo[1,2-a]pyridin-3-yl]-6-methoxy-benzamide] | ++ (>1.5-4.5) |
| 100 to 500 nM | COc1cc(-c2cnc3cc(OC[C@@H]4COCCO4)ccn23)cc2c1C(=O)N(CC(F)(F)F)CC2 [compound 225, 6-[7-[[(2S)-1,4-dioxan-2-yl]methoxy]imidazo[1,2-a]pyridin-3-yl]-8-methoxy-2-(2,2,2-trifluoroethyl)-3,4-dihydroisoquinolin-1-one] | ++ (>1.5-4.5) |
| 100 to 500 nM | COc1cc(-c2cnc3cc(OCc4nncn4C)ccn23)cc(OC(F)F)c1C(=O)NC1CC1 [compound 227, N-cyclopropyl-2-(difluoromethoxy)-6-methoxy-4-[7-[(4-methyl-1,2,4-triazol-3-yl)methoxy]imidazo[1,2-a]pyridin-3-yl]benzamide] | ++ (>1.5-4.5) |
| 10 to 100 nM | COc1cc(-c2cnc3cc(OCCN4CCOC[C@@H]4C)ccn23)cc(OC(F)F)c1C(=O)NC1CC1 [compound 233, N-cyclopropyl-2-(difluoromethoxy)-6-methoxy-4-[7-[2-[(3S)-3-methylmorpholin-4-yl]ethoxy]imidazo[1,2-a]pyridin-3-yl]benzamide] | ++ (>1.5-4.5) |
| 10 to 100 nM | COc1cc(-c2cnc3cc(OCCN4CCOC[C@H]4C)ccn23)cc(OC(F)F)c1C(=O)NC1CC1 [compound 234, N-cyclopropyl-2-(difluoromethoxy)-6-methoxy-4-[7-[2-[(3R)-3-methylmorpholin-4-yl]ethoxy]imidazo[1,2-a]pyridin-3-yl]benzamide] | ++ (>1.5-4.5) |
| 100 to 500 nM | COc1cc(-c2cnc3cc(OCC4(F)CN(C)C4)ccn23)cc2c1C(=O)N(CC(F)(F)F)CC2 [compound 252, 6-[7-[(3-fluoro-1-methyl-azetidin-3-yl)methoxy]imidazo[1,2-a]pyridin-3-yl]-8-methoxy-2-(2,2,2-trifluoroethyl)-3,4-dihydro isoquinolin-1-one] | ++ (>1.5-4.5) |
| 0.01 to 10 nM | COc1cc(-c2cnc3cc(OCCCN4CCNCC4)ccn23)cc(OC(F)F)c1C(=O)NC1CC1 [compound 278, N-cyclopropyl-2-(difluoromethoxy)-6-methoxy-4-[7-(3-piperazin-1-ylpropoxy)imidazo[1,2-a]pyridin-3-yl]benzamide] | ++ (>1.5-4.5) |
| 10 to 100 nM | COc1cc(-c2cnc3cc(OCCCN4CCCC(O)C4)ccn23)cc(OC(F)F)c1C(=O)NC1CC1 (stereo not drawn) [compound 328, N-cyclopropyl-2-(difluoromethoxy)-4-[7-[3-(3-hydroxy-1-piperidyl)propoxy]imidazo [1,2-a]pyridin-3-yl]-6-methoxy-benzamide] | ++ (>1.5-4.5) |
| 10 to 100 nM | CCOC(=O)C1(F)CCN(CC(O)COc2ccn3c(-c4cc(OC)c(C(=O)NC5CC5)c(OC(F)F)c4)cnc3c2)CC1 (stereo not drawn) [compound 384, ethyl 1-[3-[3-[4-(cyclopropylcarbamoyl)-3-(difluoromethoxy)-5-methoxy-phenyl]imidazo[1,2-a]pyridin-7-yl]oxy-2-hydroxy-propyl]-4-fluoro-piperidine-4-carboxylate] | ++ (>1.5-4.5) |
